Test results from patent publication US10273234B2, “Compounds that are S1P modulating agents and/or ATX modulating agents” (BIOGEN MA INC., priority 2012, dated 2019).

The compounds below were run against Human ATX protein (Homo sapiens (Human), UniProt Q13822) (assay: ATX biochemical FRET assay with FS-3 substrate). Details: 1.0 μg/mL ATX, 2 μM FS-3, 2 hours at room temperature.
Source text: ATX (Autotaxin) is a 125 KDa glycoprotein with lysophospholipase D (LPLD) activity that generates the bioactive lipid lysophosphatidic acid (LPA) from lysophosphatidylcholine (LPC). The ATX biochemical assay utilizes a FRET (fluorescence resonance energy transfer) technology platform. The fluorescence signal of FRET substrate FS-3 is quenched due to intra-molecular FRET of a fluorophore to a non-fluorescing quencher (Ferguson, C. G., et al., Org Lett. 2006 May 11; 8(10): 2023-2026, which is incorporated by reference in its entirety). ATX catalyzes the hydrolysis of the substrate which separates the dabsyl quencher from the fluorescein reporter, which becomes fluorescent. The reaction is monitored by a SpectraMax M5 (Molecular Devices, Sunnyvale, Calif.) with at excitation wavelength 485 nm and emission wavelength […].
2×ATX assay buffer: 100 mM Tris, 280 mM NaCl, 10 mM KCl, 2 mM CaCl2, 2 mM MgCl2, pH 7.4.
Human ATX protein: expressed and purified in house. Stored at −80° C.
Substrate FS-3 (Echelon, L-2000): 100 μg in 77.74 μL H2O (1 mM stock), stored at −20° C.
Compound dilution—All compounds were provided at 10 mM in 100% DMSO. In the first well, 2 μL of 10 mM compound was added to 78 μL of DMSO (1:40 dilution). In subsequent wells 3-fold dilution (total 10 dilutions) were performed.
1×ATX assay buffer was made up with a final concentration of 1 mg/mL fatty acid free-BSA using 2×ATX assay buffer, 10 mg/ml fatty acid free-BSA and ddH2O.
ATX protein was diluted with 1×ATX assay buffer to a concentration of 1.32 μg/mL (1.32×). 38 μL was added per well to the assay plate. The final concentration of ATX in the reaction as 1.0 μg/mL.
2 μL per well of compounds was transferred to provide the desired concentration. The plate was centrifuged, then incubated at room temperature for 30 minutes on the shaker.
FS-3 was diluted with 1×ATX assay buffer to a concentration of FS-3 of 10 μM (5×). Then, 10 μL was added per well to the assay plate. The final concentration of FS-3 in the reaction was 2 μM. The plate was centrifuged. The plate was kept shaking at room temperature for 2 hours. Because FS-3 substrate is light sensitive, plates were kept covered and protected from light.
Fluorescence was measured using SpectraMax M5 (excitation at 485 nm/emission at 538 nm, top read).

| Compound | IC50 [µM] |
| --- | --- |
| CCCC[C@H]1CC[C@H](Oc2cccc3cc(CN4CC(C(=O)O)C4)ccc23)CC1 [Example 22, 1-((5-((trans-4-butylcyclohexyl)oxy)naphthalen-2-yl)methyl)azetidine-3-carboxylic acid] | > 5 |
| CC(C)(C)[C@H]1CC[C@H](Oc2cccc3cc(CN4CC5CC(C(=O)O)CC5C4)ccc23)CC1 (stereo partly drawn) [Example 5, 2-((5-((trans-4-(tert-butyl)cyclohexyl)oxy)naphthalen-2-yl)methyl)octahydrocyclopenta[c]pyrrole-5-carboxylic acid] | 0.5 to 5 |
| C[C@H]1CC[C@H](Oc2cccc3cc(CN4CCC(C(=O)O)CC4)ccc23)CC1 [Example 15, 1-((5-((trans-4-methylcyclohexyl)oxy)naphthalen-2-yl)methyl)piperidine-4-carboxylic acid] | 0.5 to 5 |
| CC(C)(C)[C@H]1CC[C@H](Oc2cccc3cc(CN4CCC(C(=O)O)CC4)ccc23)CC1 [Example 24, 1-((5-((trans-4-(tert-butyl)cyclohexyl)oxy)naphthalen-2-yl)methyl)piperidine-4-carboxylic acid] | < 0.5 |
| C[C@H]1CC[C@@H](Oc2cccc3cc(CN4C5CCC4CC(C(=O)O)C5)ccc23)CC1 (stereo partly drawn) [Example 27, 8-((5-((cis-4-methylcyclohexyl)oxy)naphthalen-2-yl)methyl)-8-azabicyclo[3.2.1]octane-3-carboxylic acid] | 0.5 to 5 |
| O=C(O)C1CCN(Cc2ccc3c(O[C@H]4CC[C@@H](C(F)(F)F)CC4)cccc3c2)CC1 [Example 10, 1-((5-((cis-4-(trifluoromethyl)cyclohexyl)oxy)naphthalen-2-yl)methyl)piperidine-4-carboxylic acid] | > 5 |
| CC(C)(C)[C@H]1CC[C@H](Oc2cccc3cc(CN4C5CCC4CC(C(=O)O)C5)ccc23)CC1 (stereo partly drawn) [Example 1, 8-((5-((trans-4-(tert-butyl)cyclohexyl)oxy)naphthalen-2-yl)methyl)-8-azabicyclo[3.2.1]octane-3-carboxylic acid] | 0.5 to 5 |
| O=C(O)C1CN(Cc2ccc3c(O[C@H]4CC[C@H](C(F)(F)F)CC4)cccc3c2)C1 [Example 20, 1-((5-((trans-4-(trifluoromethyl)cyclohexyl)oxy)naphthalen-2-yl)methyl)azetidine-3-carboxylic acid] | 0.5 to 5 |
| CC[C@H]1CC[C@H](Oc2cccc3cc(CN4CCC(C(=O)O)CC4)ccc23)CC1 [Example 14, 1-((5-((trans-4-ethylcyclohexyl)oxy)naphthalen-2-yl)methyl)piperidine-4-carboxylic acid] | 0.5 to 5 |
| O=C(O)C1CN(Cc2ccc3c(O[C@H]4CC[C@H](c5ccccc5)CC4)cccc3c2)C1 [Example 18, 1-((5-((trans-4-phenylcyclohexyl)oxy)naphthalen-2-yl)methyl)azetidine-3-carboxylic acid] | > 5 |
| CC(C)[C@H]1CC[C@@H](Oc2cccc3cc(CN4CCC(C(=O)O)CC4)ccc23)CC1 [Example 11, 1-((5-((cis-4-isopropylcyclohexyl)oxy)naphthalen-2-yl)methyl)piperidine-4-carboxylic acid] | > 5 |
| CC(C)(C)[C@H]1CC[C@H](Oc2cccc3cc(CNC4CC(C(=O)O)C4)ccc23)CC1 (stereo partly drawn) [Example 7, 3-(((5-((trans-4-(tert-butyl)cyclohexyl)oxy)naphthalen-2-yl)methyl)amino)cyclobutanecarboxylic acid] | 0.5 to 5 |
| CC(C)(C)[C@H]1CC[C@H](Oc2cccc3cc(CN4C5CCCC4CC(C(=O)O)C5)ccc23)CC1 (stereo partly drawn) [Example 2, 9-((5-((trans-4-(tert-butyl)cyclohexyl)oxy)naphthalen-2-yl)methyl)-9-azabicyclo[3.3.1]nonane-3-carboxylic acid] | > 5 |
| O=C(O)C1CN(Cc2ccc3c(O[C@H]4CC[C@H](C5CCCC5)CC4)cccc3c2)C1 [Example 23, 1-((5-((trans-4-cyclopentylcyclohexyl)oxy)naphthalen-2-yl)methyl)azetidine-3-carboxylic acid] | > 5 |
| CCCCCCCOc1cccc2cc(CN3CCC(C(=O)O)CC3)ccc12 [Example 25, 1-((5-(heptyloxy)naphthalen-2-yl)methyl)piperidine-4-carboxylic acid] | > 5 |
| CC[C@H]1CC[C@@H](Oc2cccc3cc(CN4CCC(C(=O)O)CC4)ccc23)CC1 [Example 12, 1-((5-((cis-4-ethylcyclohexyl)oxy)naphthalen-2-yl)methyl)piperidine-4-carboxylic acid] | 0.5 to 5 |
| CC(C)(C)[C@H]1CC[C@H](Oc2cccc3cc(CN4CCCC(C(=O)O)CC4)ccc23)CC1 (stereo partly drawn) [Example 8, 1-((5-((trans-4-(tert-butyl)cyclohexyl)oxy)naphthalen-2-yl)methyl)azepane-4-carboxylic acid] | > 5 |
| C[C@H]1CC[C@H](Oc2cccc3cc(CN4CC(C(=O)O)C4)ccc23)CC1 [Example 17, 1-((5-((trans-4-methylcyclohexyl)oxy)naphthalen-2-yl)methyl)azetidine-3-carboxylic acid] | > 5 |
| C[C@H]1CC[C@@H](Oc2cccc3cc(CN4C5CCCC4CC(C(=O)O)C5)ccc23)CC1 (stereo partly drawn) [Example 26, 9-((5-((cis-4-methylcyclohexyl)oxy)naphthalen-2-yl)methyl)-9-azabicyclo[3.3.1]nonane-3-carboxylic acid] | 0.5 to 5 |
| CC(C)[C@H]1CC[C@H](Oc2cccc3cc(CN4CC(C(=O)O)C4)ccc23)CC1 [Example 21, 1-((5-((trans-4-isopropylcyclohexyl)oxy)naphthalen-2-yl)methyl)azetidine-3-carboxylic acid] | > 5 |
| CC1(C)C(NCc2ccc3c(O[C@H]4CC[C@H](C(C)(C)C)CC4)cccc3c2)CC1C(=O)O (stereo partly drawn) [Example 3, 3-(((5-((trans-4-(tert-butyl)cyclohexyl)oxy)naphthalen-2-yl)methyl)amino)-2,2-dimethylcyclobutanecarboxylic acid] | 0.5 to 5 |
| CC(C)(C)[C@H]1CC[C@H](Oc2cccc3cc(CN4CC(C(=O)O)C4)ccc23)CC1 [Example 4, 1-((5-((trans-4-(tert-butyl)cyclohexyl)oxy)naphthalen-2-yl)methyl)azetidine-3-carboxylic acid] | < 0.5 |
| CC(C)[C@H]1CC[C@H](Oc2cccc3cc(CN4CCC(C(=O)O)CC4)ccc23)CC1 [Example 13, 1-((5-((trans-4-isopropylcyclohexyl)oxy)naphthalen-2-yl)methyl)piperidine-4-carboxylic acid] | 0.5 to 5 |
| CC[C@H]1CC[C@H](Oc2cccc3cc(CN4CC(C(=O)O)C4)ccc23)CC1 [Example 19, 1-((5-((trans-4-ethylcyclohexyl)oxy)naphthalen-2-yl)methyl)azetidine-3-carboxylic acid] | 0.5 to 5 |
| C[C@H]1CC[C@@H](Oc2cccc3cc(CN4CCC(C(=O)O)CC4)ccc23)CC1 [Example 28, 1-((5-((cis-4-methylcyclohexyl)oxy)naphthalen-2-yl)methyl)piperidine-4-carboxylic acid] | > 5 |
| O=C(O)C1CCN(Cc2ccc3c(O[C@H]4CC[C@H](C(F)(F)F)CC4)cccc3c2)CC1 [Example 9, 1-((5-((trans-4-(trifluoromethyl)cyclohexyl)oxy)naphthalen-2-yl)methyl)piperidine-4-carboxylic acid] | 0.5 to 5 |
